Consider three molecules from ChEMBL document CHEMBL1152241, “Synthesis and recovery of high bioactive phenolics from table-olive brine process wastewater” (Bioorg Med Chem, 2008).

Usually IC50 stands for the concentration at which inhibition is half-maximal. For orientation: MIC means the least concentration at which growth counts as inhibited. A lower MIC goes with greater potency.

The test system of data set [1] is Radical scavenging activity. In words: Antioxidant activity assessed as DPPH radical scavenging activity after 30 mins. The data set is classed as functional. Background: Loss of DPPH colour is used to gauge radical scavenging.
Data set [2] is described as follows: Antioxidant activity assessed as trolox equivalent of ABTS radical scavenging activity. The data set is classed as functional.
Data set [3] can be described thus: Antioxidant activity assessed as ferric ion reducing activity by FRAP assay. It counts as functional.
The test system of data set [4] is HeLa. In words: Cytotoxicity against human HeLa cells after 48 hrs by MTT assay. The data set is classed as functional, cell-based. On the technique in general: Tetrazolium assays rely on reduction of a dye to a coloured formazan, in cell work by metabolically active cells.
For data set [5], the system named is DG-75. In words: Cytotoxicity against human DG75 cells after 48 hrs by MTT assay. It counts as functional, cell-based. To be noted: for IC50: DG-75, 48 h.
The subject of a further data set is PBL. In words: Cytotoxicity against human PBL after 48 hrs by MTT assay. It counts as cell-based.
The subject of a further data set is Pseudomonas aeruginosa. As to the kind of experiment: Antibacterial activity against Pseudomonas aeruginosa ATCC 15442 after 24 to 72 hrs at 30 degC by broth dilution susceptibility test. The data set is classed as functional. (In general: In broth dilution the organism is exposed to a series of concentrations in liquid medium.)
The test system of a further data set is Escherichia coli. In words: Antibacterial activity against Escherichia coli ATCC 10536 after 24 to 72 hrs at 37 degC by broth dilution susceptibility test. It counts as functional.
A further data set concerns Salmonella enterica. As to the kind of experiment: Antibacterial activity against Salmonella enterica CIP 80.39 after 24 to 72 hrs at 37 degC by broth dilution susceptibility test. It counts as functional.
A further data set relates to Bacillus subtilis. As to the kind of experiment: Antibacterial activity against Bacillus subtilis ATCC 6633 after 24 to 72 hrs at 30 degC by broth dilution susceptibility test. The data set is classed as functional.
A further data set concerns Candida albicans. In words: Antifungal activity against Candida albicans ATCC 10231 after 24 to 72 hrs at 28 degC by broth dilution susceptibility test. It counts as functional.
A further data set concerns Aspergillus niger. In words: Antifungal activity against Aspergillus niger ATCC 16404 after 24 to 72 hrs at 28 degC by broth dilution susceptibility test. The data set is classed as functional.
Data set [6] deals with HeLa. In words: Antioxidant activity against ferrous ion-induced oxidative stress in human HeLa cells assessed as decrease in malondialdehyde formation at 10 ug/mL pretreated for 4 hrs before Fe2+ challenge by TBARS assay. The data set is classed as functional, cell-based.
In data set [7] the test system is HeLa. In words: Antioxidant activity against ferrous ion-induced oxidative stress in human HeLa cells assessed as decrease in malondialdehyde formation at 20 ug/mL pretreated for 4 hrs before Fe2+ challenge by TBARS assay. It counts as functional, cell-based.
Data set [8] relates to DG-75. In words: Antioxidant activity against ferrous ion-induced oxidative stress in human DG75 cells assessed as decrease in malondialdehyde formation at 10 ug/mL pretreated for 4 hrs before Fe2+ challenge by TBARS assay. The data set is classed as functional, cell-based.
Data set [9] concerns DG-75. In words: Antioxidant activity against ferrous ion-induced oxidative stress in human DG75 cells assessed as decrease in malondialdehyde formation at 20 ug/mL pretreated for 4 hrs before Fe2+ challenge by TBARS assay. It counts as functional, cell-based.
In a further data set the test system is Staphylococcus aureus. As to the kind of experiment: Antibacterial activity against Staphylococcus aureus ATCC 9144 after 24 to 72 hrs at 37 degC by broth dilution susceptibility test. The data set is classed as functional.

Converted amounts (≈) assume the structure as drawn. The source made the active and inactive calls. No cut-off for these calls is given here.

Consider `CC(=O)OCCc1ccc(OC(C)=O)c(OC(C)=O)c1`, for which the result in data set [1], in data set [2] and in data set [3] was inactive. The values for the Activity result with HeLa [4], in the data set with DG-75 [5] and with PBL were “Dose-dependent effect”, “Dose-dependent effect” and “Not Active”, respectively. The figures for the IC50 in the data set with HeLa [4] and in the data set on DG-75 [5] were 92 µg/mL (≈ 328 µM) and 27 µg/mL (≈ 96.3 µM), respectively. Further, the MIC against Pseudomonas aeruginosa came to 250 µg/mL (≈ 892 µM); against Escherichia coli it was 250 µg/mL (≈ 892 µM); in the data set on Salmonella enterica, 250 µg/mL (≈ 892 µM); against Bacillus subtilis it was 125 µg/mL (≈ 446 µM); with Candida albicans, 500 µg/mL (≈ 1780 µM); in the data set on Aspergillus niger, 500 µg/mL (≈ 1780 µM).

For `Cc1cc(C(C)(C)C)c(O)c(C(C)(C)C)c1` [BUTYLATED HYDROXYTOLUENE], the IC50 in data set [1] was found to be 7.94 µg/mL (≈ 36 µM). Moreover, in data set [2], the Activity came to 2.37 mmol.

Turning to `OCCc1ccc(O)c(O)c1` [HYDROXYTYROSOL], the IC50 amounted to 3.71 µg/mL (≈ 24.1 µM) in data set [1], 70 µg/mL (≈ 454 µM) in the data set with HeLa [4] and 58 µg/mL (≈ 376 µM) in the data set with DG-75 [5]. In addition, the Activity in data set [2] is 3.4 mmol; with HeLa [4], “Dose-dependent effect”; with DG-75 [5] it was “Dose-dependent effect”; in the data set with PBL, “Not Active”. The outcome (in data set [3]; in the data set on HeLa [6]; with HeLa [7]; in the data set with DG-75 [8]; with DG-75 [9]) was Active. For the same molecule, the MIC in the data set with Pseudomonas aeruginosa was 125 µg/mL (≈ 811 µM); in the data set with Escherichia coli it was 125 µg/mL (≈ 811 µM); in the data set with Salmonella enterica it was 125 µg/mL (≈ 811 µM); against Bacillus subtilis it was 62.5 µg/mL (≈ 405 µM); in the data set with Staphylococcus aureus, 62.5 µg/mL (≈ 405 µM); in the data set with Candida albicans, 125 µg/mL (≈ 811 µM). In addition, the MIC in the data set with Aspergillus niger came out at 250 µg/mL (≈ 1620 µM).
